Literature values as cited in paper PMC4043931 (Chembiochem : a European journal of chemical biology, 2014).

How the values were obtained:
Conditions in all cases: listed for comparison; ref [7i], [10]
[1] = tested on: human red blood cells (hRBC's)
[2] = tested on: Methicillin-resistant Staphylococcus aureus (ATCC 33591)
[3] = tested on: Klebsiella. pneumoniae (ATCC 13383)
[4] = tested on: Methicillin-resistant Staphylococcus epidermidis (RP62A)
[5] = tested on: Pseudomonas aeruginosa (ATCC 27853)
[6] = tested on: Vancomycin-resistant Enterococcus faecalis (ATCC 700802)

## Pexiganan
[1]
  Hemolysis HC50: 120 µg/mL
[2]
  MIC S. aureus: 16 µg/mL
[3]
  MIC K. pneumoniae: 8 µg/mL
[4]
  MIC S. epidermidis: 8 µg/mL
[5]
  MIC P. aeruginosa: 16 µg/mL
[6]
  MIC E. faecalis: 32 µg/mL
